Measurements from patent US7531570B2, “Treatment of diseases using ICE inhibitors” (Vertex Pharmaceuticals Incorporated, priority 2004, dated 2009).

Columns and labels:
MWS patients = assay: Open-label clinical trial: clinical response of 4 MWS patients to compound 7; format: in vivo, human
Procedure: Clinical Response of 4 MWS Patients to 900 mg Compound 7 Administered Orally Three Times Daily for 14 Days.
Four patients with MWS were enrolled into an open-label clinical trial to receive treatment with compound 7.
Compound 7 was administered orally at a dose of 900 mg 3 times daily for 14 days.
Specifically, in FIG. 3A, serum interleukin-18 (IL-18) was measured before (day −9 and day 0 (first point)), during (day 0 (second point), day 7 and day 14, (first point)) and after (day 14 (second point) and day 21) treatment with compound 7. On average, serum IL-18 levels were reduced by 55% at day 14. Data were reported in mean±SEM from 4 patients. Baseline levels of serum IL-18 were 170-370 pg /mL and were only slightly elevated relative to those typically observed in healthy control subjects.
In FIG. 3B, Serum amyloid A (SAA) and C-reactive protein (CRP) were measured before, during and after treatment with compound 7, and the amounts of SAA and CRP were reduced on average by 75% and 65%, respectively. Baseline levels of SAA were 150-650 mg/L and of CRP were 20-90 mg/L, both considerably elevated relative to healthy control subjects.
FIG. 3C illustrates that the self-reported patient total symptom scores were reduced on average by 60% during treatment. Individual symptoms (rash, fever/chills, arthralgia/myalgia, eye discomfort, fatigue) were rated daily by patients to be absent (O), minimal (1), mild (2), moderate (3) or severe (4) and the total score was calculated as the sum of individual symptom scores (range 0-20). Patients were experiencing mild-moderate symptoms at the beginning of treatment (scores 10-15), which were reduced to a minimal level (scores about 5) during treatment with compound 7.

[1] = tested on: LPS-stimulated IL-1β release from PBMCs from MWS patients; assay: LPS-stimulated IL-1β release from PBMCs from MWS patients; format: cell-based, human; settings: PBMCs from 4 MWS patients, 10 ng/ml LPS, compound 0.03-10 μM, 24 hour, ELISA, FIG. 2
Procedure: Inhibition by Compound 7 of LPS-Stimulated IL-1β Release from PBMCs from 4 MWS Patients Incubated with 10 ng/ml LPS in the Presence of Increasing Concentrations of Compound 7 (0.03-10 μM) for 24 Hour.
Whole blood samples were collected from patients with MWS and cultured in vitro. The production of IL-1β was evaluated under normal, unstimulated conditions and in the presence of lipopolysaccharide at a range of concentrations from 10-10,000 ng/mL. Compound 7 was added to the cultures at concentrations of 30-10,000 nM to observe its ability to inhibit the production of IL-1β by cells from patients with MWS or healthy volunteers. FIG. 2 illustrates the results of these experiments.
More specifically, in FIG. 2, IL-1β in cell culture media was measured by ELISA and the results for each subject were normalized to the level of IL-1β release in the absence of compound 7. Results were reported individually for each of the 4 MWS patients.

[2] = tested on: LPS-stimulated IL-18 release from PBMCs of FCAS patients; assay: LPS-stimulated IL-18 release from PBMCs of patients with FCAS; format: cell-based, human
Description: (§1) Inhibition by Compound 7 of LPS-Stimulated IL-1β and IL-18 Release from PBMCs of Patients with FCAS Compared with Healthy Controls.
(§2) FCAS patients from 3 families were studied along with healthy controls. The FCAS patients expressed 3 different CIAS1 gene mutations. […] (Neven B, Callebaut I, Prieur A M, Feldmann J, Bodemer C, Lepore L, Derfalvi B, Benjaponpitak S, Vesely R, Sauvain M J, Oertle S, Allen R, Morgan G, Borkhardt A, Hill C, Gardner-Medwin J. Fischer A, de Saint Basile G. Molecular basis of the spectral expression of CIAS1 mutations associated with phagocytic cell-mediated autoinflammatory disorders CINCA/NOMID, MWS, and FCU. Blood. 2004; 103(7): 2809-15).
(§3) Whole blood samples were collected from patients with FCAS and from healthy volunteer controls and cultured in vitro. The production of IL-1β was evaluated under normal, unstimulated conditions and in the presence of lipopolysaccharide at a range of concentrations from 10-10,000 ng/mL. Compound 7 was added to the cultures at concentrations of 30-30,000 nM to observe its ability to inhibit the production of IL-1β and IL-18 by cells from patients with FCAS or healthy volunteers. FIG. 1 illustrates the results of these experiments.
FIG. 1C illustrates the release of IL-18 by PBMCs from FCAS patients or control subjects after 24 hrs exposure to LPS in the absence or presence of 10 μM compound 7. […]

[3] = tested on: LPS-stimulated IL-1β release from PBMCs of FCAS patients; assay: LPS-stimulated IL-1β release from PBMCs of patients with FCAS; format: cell-based, human
Description: as §1, §2, §3
(§4) More specifically, in FIG. 1A, PBMCs from FCAS patients and normal controls were incubated with 10 ng/ml LPS in the presence of increasing concentrations of compound 7 (0.03-30 μM) for 24 hours. IL-1β in cell culture media was measured by ELISA and the results for each subject were normalized to the level of IL-1β release in the absence of compound 7. Results were reported in mean±SEM, for 3 FCAS patients and 5 control patients. LPS-stimulated IL-1β was inhibited by compound 7 with potency very similar to that of PBMCs from normal subjects (IC50 value˜1 μM).
FIG. 1B illustrates the release of IL-1β by PBMCs from FCAS patients or control subjects after exposure to LPS for 24 hours in the absence or presence of 10 μM compound 7. Results were reported in mean±SEM for 7 FCAS patients and 5 control patients. […]

[4] = tested on: LPS-stimulated IL-1β release from PBMCs from normal subjects; assay: LPS-stimulated IL-1β release from PBMCs of healthy controls; format: cell-based; settings: Homo sapiens, PBMC, 10 ng/ml LPS, 24 hours, compound 0.03-30 μM, ELISA, FIG. 1A, read-out: IC50 for inhibition of LPS-stimulated IL-1β release
Procedure: as §1, §3, §4

patients with MWS = settings: cited from earlier work
[5] = 900 mg orally three times daily for 14 days, MWS patients, FIG. 3B

Row | Molecule | Reduction of C-reactive protein (CRP) (average) (MWS patients; [5]) [%] | Reduction of serum amyloid A (SAA) (average) (MWS patients; [5]) [%] | Reduction of serum interleukin-18 (average) (MWS patients; 900 mg orally three times daily, at day 14, 4 MWS patients, FIG. 3A) [%] | Reduction of self-reported patient total symptom scores (average) (MWS patients; 900 mg orally three times daily, during treatment, MWS patients, FIG. 3C) [%] | Tolerability (MWS patients; four MWS patients, 14-day treatment period, 900 mg 3 times daily orally) | Total symptom score during treatment (MWS patients; sum of 5 symptom scores, range 0-20, scores 10-15 at beginning of treatment) | Inhibition of LPS-stimulated IL-1β release, potency versus normal subjects [1] | LPS-stimulated IL-18 release in presence of compound ([2]; 10 μM compound, LPS 24 hrs, PBMCs from 3 FCAS patients vs 3 controls, FIG. 1C) | Potency of blocking IL-18 secretion, FCAS versus control subjects ([2]; LPS-stimulated cells, FIG. 1) | LPS-stimulated IL-1β release in presence of compound ([3]; 10 μM compound, LPS 24 hours, PBMCs from 7 FCAS patients vs 5 controls, FIG. 1B) | IC50 ([3]; Homo sapiens, PBMC, PBMCs from FCAS patients, 10 ng/ml LPS, 24 hours, compound 0.03-30 μM, ELISA, FIG. 1A, read-out: IC50 for inhibition of LPS-stimulated IL-1β release) [nM] | Potency of blocking IL-1β secretion, FCAS versus control subjects ([3]; LPS-stimulated cells, FIG. 1) | IC50 [4] [nM] | Clinical inflammatory symptoms in patients with MWS (patients with MWS; daily injection) | Serum amyloid A in patients with MWS (patients with MWS; daily injection) | Urinary excretion of amyloid in patients with MWS (patients with MWS; daily injection) | Effectiveness in treating Muckle-Wells syndrome, Familial Cold Autoinflammatory Syndrome, Hyper-IgD syndrome and systemic onset Juvenile idiopathic Arthritis (patients with MWS; human, in vivo)
1 | CCO[C@@H]1OC(=O)C[C@@H]1NC(=O)[C@@H]1CCCN1C(=O)[C@@H](NC(=O)c1ccc(N)c(Cl)c1)C(C)(C)C [Compound 7] | 65 | 75 | 55 | 60 | well tolerated | about 5 | potency similar to that of PBMCs from normal subjects | inhibited | equal potency | inhibited | ~1000 | equal potency | ~1000 | – | – | – | –
2 | anakinra: recombinant human interleukin-1 receptor antagonist (rhuIL-1Ra, anakinra) | – | – | – | – | – | – | – | – | – | – | – | – | – | dramatic, rapid and sustained reduction | reduction of serum amyloid A | reduction | effective
